Reference: patent publication US20200384003A1, “TRITERPENOID-CONTAINING PHARMACEUTICAL COMPOSITION AND USE THEREOF” (SHANGHAI LANMU CHEMICALS CO., LTD., priority 2017, published 2020)
Changes are numbered by the printed parent chain.

How the values were obtained:
[1] = Heat stability at 80° C. versus 4° C., HPLC and appearance (Example 18); type: physicochemical; conditions: for content after heat storage / initial experiment purity: HPLC; for initial experiment purity: stored at 4° C.
Experimental: The heatl stabilities of inotodiol and trametenolic acid were tested, and lanosterol was used as a reference at the same time.

[2] = molecular target: T1, mutated lens protein (αB-crystallin R120G) (Homo sapiens, UniProt P02511, R120G); assay: Intracellular mutated lens protein aggregation inhibition experiment in transfected HeLa cells (Example 21); type: cell-based; conditions: 10 μM, treated 3.5 hours, then 6.5 h normal medium, fewer + = better
T1 construct: expressed in transfected cells; host or cells: HeLa
T1 sequence (P02511 1-175 R120G): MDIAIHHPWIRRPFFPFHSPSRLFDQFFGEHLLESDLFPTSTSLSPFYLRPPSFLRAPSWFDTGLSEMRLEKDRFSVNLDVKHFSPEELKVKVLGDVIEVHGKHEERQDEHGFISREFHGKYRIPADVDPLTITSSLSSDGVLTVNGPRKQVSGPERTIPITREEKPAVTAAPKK
Experimental: In this example, apart of the specific compounds obtained in Example 19 and Example 20 were selected for intracellular mutated lens protein (αB-crystallin R120G) aggregation inhibition experiment (experimental method was described in Chinese patent CN201580057679). The aggregation inhibition activities of compound I and compound II in the present invention on lens protein mutants were evaluated to screen a compound which was effective in treating related disease such as cataract.
The tumor cell line HeLa was selected as a host cell transfected with the mutant lens protein (αB-crystallin […]) expression plasmid, the medium was DMEM with […], and the culture conditions were 37° C., saturated humidity and 5% carbon dioxide cell incubator. Mycoplasma was negative. The transfection process is that the appropriate number of HeLa cells were inoculated on the pre-coated slides. When fully adherent cells grew to about 75% cell density, the expression vector was transfected with liposome. After 4 hours of transfection, the medium was changed to normal medium. Then the HeLa cells were cultured in the cell incubator for 13 hours to induce the expression of exogenous mutant lens protein. After changing the medium, the replaced new medium contained various compounds of the formula I and formula II of the present invention to be tested (DMSO was used as solvent in all mother fluid), wherein the final concentration of each compound was 10 μM, the negative control was 1.5% DMSO solvent, and the positive control was lanosterol (10 μM). The HeLa cells were treated with the medium containing the test compound, 1.5% DMSO solvent and lanosterol for 3.5 hours, respectively, and the normal fresh medium containing no DMSO, test compound or lanosterol was exchanged and the cells were cultured for another 6.5 h, then Anti-p62 antibody and DAPI were used for routine cellular immunofluorescence detection. The field of vision of three positions per slide was randomly selected, the ratio of cells containing aggregated crystalline proteins (lens protein aggregates) was calculated, and the effect of each test compound on intracellular aggregation of mutant lens proteins was finally determined, the results were shown in Table 19.

[3] = Pharmacokinetic study, drug in aqueous humor after eye glass cavity injection (Example 5); type: in vivo; conditions: SD rats, 5 μl injected into each glass cavity, detected 10 days after the surgery
Experimental: SD rats (about 10 weeks old, male or female) were anesthetized by intraperitoneal injection of pentobarbital sodium and pupil was dilated, then eye glass cavity injection surgery was performed. All animals were injected with the same kind of drugs in both eyes. The amount of drug injected into each glass cavity was 5 μl, and the number of test animals per drug formulation (Example 1, Example 2 and Comparative Example 1) was four, and the drug metabolism in the aqueous humor was detected 10 days after the surgery.

[4] = molecular target: T2, wild-type αB lens protein aggregate (WT αB) (Homo sapiens, UniProt P02511); assay: Dissolution of lens protein aggregates, ThT fluorescence (Example 22); type: biochemical; conditions: liposome form, final concentration 125 μM, 24 hours, versus blank liposomes (FIG. 33)
T2 sequence (P02511 1-175): T1 sequence (P02511 1-175 R120G) with G120R
Experimental: The experimental method was as follows: Inotodiol was used as test compound, and its dissolution effect on wild-type αB lens protein aggregate (WT αB) was measured, and lanosterol was used as positive control.
In the present example, the formulations of pharmaceutical composition in the test group and the control group were liposome, wherein the component of the formulation of test group was 40 mg of DPPC, 10 mg of cholesterol and 10 mg of test compound; the component of the formulation of positive control group was 40 mg of DPPC, 10 mg of cholesterol and 10 mg of lanosterol; the component of formulation of the blank control group was 40 mg of DPPC and 10 mg of cholesterol. […]
The analysis of compound concentration in the liposome formulation: The obtained liposome solution was demulsificated with 4 to 5 volumes of methanol solution to afford clear solution. The concentration of compound in the liposome was determined by HPLC method, and the chromatographic conditions are as follows. […] After the comparative analysis, the concentration of corresponding compound in the liposome preparation was determined.
The induction of protein aggregates is as follows. […] After the treatment, ThT fluorescence was used to detect the effect of different compounds on αB lens protein aggregates.

[5] = system: diabetic metabolite cataract; assay: Therapeutic effect on diabetic metabolite cataract, streptozotocin model (Example 11); type: in vivo, SD rats; conditions: right eye of diabetic rat, pictures before and after 2 months of treatment (FIG. 25-29)
cataract = conditions: sustained-release lanosterol drug, dogs; cited from earlier work
traumatic cataract = assay: Therapeutic effect of eye ointment on traumatic cataract (Example 10); type: in vivo, SD rats; conditions: pictures before and after administration (FIG. 22-24, Table 10)
cataract lens = conditions: direct administration to the eyeball or lens, primates; cited from earlier work
[6] = 80° C. for 1 week, compared with 4° C.
[7] = 80° C. for 2 weeks, compared with 4° C.

| SMILES | appearance after heat storage [1, 6] | appearance after heat storage [1, 7] | content after heat storage ([1]; 80° C. for 1 day) [%] | content after heat storage ([1]; 80° C. for 2 day) [%] | content after heat storage ([1]; 80° C. for 3 day) [%] | initial experiment purity [1] [%] | Inhibitory effect (percentage of cells containing aggregated proteins) [2] | decrease of drug concentration in aqueous humor compared with initial concentration immediately after injection [3] | ThT fluorescence signal of αB lens protein aggregates [4] | turbid area of lens / course of cataract after administration [5] | purity after heat storage ([1]; 80° C. for 2 weeks) [%] | appearance after heat storage ([1]; 80° C. for 1 day) | cataract treatment effect (cataract) | cortical turbidity area of eyes with traumatic cataract, transparency after administration (traumatic cataract) | transparency of cataract lens (cataract lens) |
| --- | --- | --- | --- | --- | --- | --- | --- | --- | --- | --- | --- | --- | --- | --- | --- |
| CC(C)=CCC(O)[C@@H](C)[C@H]1CC[C@@]2(C)C3=C(CC[C@]12C)[C@@]1(C)CC[C@H](O)C(C)(C)C1CC3 (stereo partly drawn) [Inotodiol, inotodiol] | did not change | began to turn yellow | 88 | 68 | 67 | 94 | + (<30% of the cells in the field of vision contained protein aggregates) | 11%±2.3% | significantly reduce the ThT fluorescence signal |  |  |  |  |  |  |
| CC(C)=CCC[C@@H](C)[C@H]1CC[C@@]2(C)C3=C(CC[C@]12C)[C@@]1(C)CC[C@H](O)C(C)(C)[C@@H]1CC3 [lanosterol, reference compound] | one third of the lanosterol turned yellow | All lanosterol turned yellow | 73 | 48 | 44 | 96 | +++ (>60% of the cells in the field of vision contain protein aggregates) | 82%±14.7% | increased the ThT fluorescence signal | increased | 32 | the powder became hard and formed into a large piece | has a cataract treatment effect on dogs only when combined with high-frequency intravitreal injection | could restore transparency of lens with slight turbidity, but no obvious reversal of the disease has been observed in severe cataract | does not restore or improve the transparency of cataract lens in primates |
